Molecules are shown by their SMILES.

The target of experiment [1] is PI3Kβ (complex of human p110β and human p85α) (Homo sapiens (Human), UniProt P42338). Nature of the experiment: PI3Kβ kinase assay (HTRF-based PI3K inhibition assay).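 On all read-outs here: Kinase-made PIP3 detected by HTRF, displacing biotinylated PIP3 tracer from a complex of Europium anti-GST antibody, GST-fused PH domain and Streptavidin-APC, read as Europium-to-APC energy transfer.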 To be noted: for inhibition at 0.93 µM: 0.93 μM compound, read-out: PI3K beta average % Inhibition at 0.93 μM; for IC50: 10 μM ATP, 10 μM PIP2, 20 min at 22° C., read-out: average IC50 in the PI3K beta biochemical assay; for PI3K beta average IC50/PI3K alpha average IC50: ratio of beta IC50 to alpha IC50. The experiment is classed as biochemical.
PI3Kβ (complex of human p110β and human p85α), sequence (P42338 whole entry, the tested form may be a part): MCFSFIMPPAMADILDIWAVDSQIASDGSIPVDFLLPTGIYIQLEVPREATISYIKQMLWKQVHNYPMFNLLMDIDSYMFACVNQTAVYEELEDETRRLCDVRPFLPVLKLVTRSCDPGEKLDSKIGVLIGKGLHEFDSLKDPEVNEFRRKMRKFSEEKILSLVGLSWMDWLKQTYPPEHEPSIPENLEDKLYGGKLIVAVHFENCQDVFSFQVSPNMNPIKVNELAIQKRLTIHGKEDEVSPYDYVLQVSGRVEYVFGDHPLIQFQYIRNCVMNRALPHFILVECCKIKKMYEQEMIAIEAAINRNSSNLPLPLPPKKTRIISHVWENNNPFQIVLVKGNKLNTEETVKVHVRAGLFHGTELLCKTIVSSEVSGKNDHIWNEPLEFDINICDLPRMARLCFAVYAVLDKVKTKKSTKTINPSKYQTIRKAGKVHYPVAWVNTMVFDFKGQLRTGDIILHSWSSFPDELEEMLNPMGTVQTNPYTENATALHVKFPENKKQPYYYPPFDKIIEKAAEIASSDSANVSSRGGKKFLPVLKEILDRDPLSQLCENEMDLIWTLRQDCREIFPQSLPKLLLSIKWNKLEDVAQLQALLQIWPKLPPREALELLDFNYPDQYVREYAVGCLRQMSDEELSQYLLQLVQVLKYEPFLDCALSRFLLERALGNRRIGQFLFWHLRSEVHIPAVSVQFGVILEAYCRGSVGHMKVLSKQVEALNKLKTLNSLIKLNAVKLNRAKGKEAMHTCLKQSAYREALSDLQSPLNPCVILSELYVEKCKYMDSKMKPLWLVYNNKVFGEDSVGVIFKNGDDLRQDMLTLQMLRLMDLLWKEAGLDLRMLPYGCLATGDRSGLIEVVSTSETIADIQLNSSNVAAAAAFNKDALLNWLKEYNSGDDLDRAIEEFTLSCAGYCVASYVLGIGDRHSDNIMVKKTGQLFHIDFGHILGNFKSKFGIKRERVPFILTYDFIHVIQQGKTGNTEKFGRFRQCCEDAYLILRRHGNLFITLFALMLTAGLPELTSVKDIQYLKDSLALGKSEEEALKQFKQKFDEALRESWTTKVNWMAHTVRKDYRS
PI3Kβ (complex of human p110β and human p85α), sequence (P27986 whole entry partner, the tested form may be a part): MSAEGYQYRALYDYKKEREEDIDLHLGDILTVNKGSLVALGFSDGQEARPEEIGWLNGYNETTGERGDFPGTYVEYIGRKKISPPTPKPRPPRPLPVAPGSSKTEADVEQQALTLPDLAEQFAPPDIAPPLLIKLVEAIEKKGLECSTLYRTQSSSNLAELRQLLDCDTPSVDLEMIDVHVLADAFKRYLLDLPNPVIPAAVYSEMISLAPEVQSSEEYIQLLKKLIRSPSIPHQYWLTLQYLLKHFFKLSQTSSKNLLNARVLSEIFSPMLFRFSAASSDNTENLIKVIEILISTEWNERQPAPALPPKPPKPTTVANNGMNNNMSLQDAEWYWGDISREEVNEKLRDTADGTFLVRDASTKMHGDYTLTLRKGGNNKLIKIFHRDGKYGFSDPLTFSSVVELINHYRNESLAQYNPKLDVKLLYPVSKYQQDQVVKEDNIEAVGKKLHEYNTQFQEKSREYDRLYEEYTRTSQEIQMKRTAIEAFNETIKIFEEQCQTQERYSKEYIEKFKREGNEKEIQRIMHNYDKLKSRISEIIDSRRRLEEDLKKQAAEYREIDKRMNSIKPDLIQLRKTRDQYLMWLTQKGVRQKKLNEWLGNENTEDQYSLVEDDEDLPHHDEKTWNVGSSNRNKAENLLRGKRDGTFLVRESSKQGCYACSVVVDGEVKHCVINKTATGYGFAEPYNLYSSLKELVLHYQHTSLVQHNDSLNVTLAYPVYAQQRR
Excerpt: (§1) Determination of % Inhibition and IC50 Values of Compounds in PI3Kα Kinase Assay
PI3Kα inhibitory activity of compounds of the present invention was quantified employing the HTRF based PI3K inhibition assay as described below.
(§2) As reagents for the kinase reaction itself and the quantification of the reaction product, the PI3-Kinase HTRF Assay kit from Millipore (#33-017) was used. With this kit the phosphatidylinositol 3,4,5-trisphosphate (PIP3) generated in the kinase reaction is detected by displacement of a biotinylated ligand from an energy transfer complex consisting of a Europium-labeled anti-GST monoclonal antibody, a GST-tagged PH domain, biotinylated PIP3 and Streptavidin-Allophycocyanin (APC).
For the assay 50 nL of a 80-fold concentrated solution of the test compound in DMSO was pipetted into a black low volume 384-well microtiter plate (Greiner Bio-One, Frickenhausen, Germany), 3 μl of a solution of PI3Kβ and phosphatidylinositol-4,5-bisphosphate (PIP2, 13.8 μM=> final conc. in 4 μl reaction volume=10 μM) in 1× reaction buffer (exact composition not disclosed by the vendor) were added and the mixture was incubated for 15 min at 22° C. to allow pre-binding of the test compounds to the enzyme before the start of the kinase reaction. The amount of PI3Kβ was chosen to have the enzyme reaction in the linear range and depended on the activity of the individual lot, typical concentrations in assay were in the range of 120 ng/mL. Then the kinase reaction was started by the addition of 1 μL of a solution of adenosine triphosphate (ATP, 40 μM=> final conc. in the 4 μl assay volume is 10 μM) in reaction buffer and the resulting mixture was incubated for a reaction time of 20 min at 22° C.
The reaction was stopped by the addition of 1 μL of an stop solution (containing the biotinylated PIP3 used as a tracer). Then 1 μL detection mix (containing a Europium-labeled anti-GST monoclonal antibody, a GST-tagged PH domain, and Streptavidin-Allophycocyanin) was added and resulting mixture was incubated for 3 h at 22° C. to allow the formation of complexes between the detection reagents and either the PIP3 generated in the kinase reaction, or the biotinylated PIP3 added with the stop solution. Subsequently the amount of energy transfer complex consisting of a Europium-labeled anti-GST monoclonal antibody, a GST-tagged PH domain, biotinylated PIP3 and Streptavidin-Allophycocyanin (APC) was evaluated by measurement of the resonance energy transfer from the Europium-labeled anti-GST monoclonal antibody to the Streptavidin-Allophycocyanin. Therefore, the fluorescence emissions at 620 nm and 665 nm after excitation at 350 nm were measured using a TR-FRET reader, e.g., a Pherastar (BMG Labtechnologies, Offenburg, Germany) or a Viewlux (Perkin-Elmer). The ratio of the emissions at 665 nm and at 622 nm were taken as the measure for the amount of biotinylated PIP3 bound to the GST-tagged PH domain, which is negatively correlated with the amount of PIP3 generated.

Experiment [2] addresses PI3Kα (complex of human p110α and human p85α) (Homo sapiens (Human), UniProt P42336). Nature of the experiment: PI3Kα kinase assay (HTRF-based PI3K inhibition assay).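 On all read-outs here: PIP3 product detected by HTRF, reading resonance energy transfer from Europium-labeled anti-GST antibody to Streptavidin-APC, as displacement of biotinylated PIP3 tracer from the GST-PH domain complex.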 The experiment is classed as biochemical. To be noted: for inhibition at 0.93 µM: 0.93 μM compound, read-out: PI3K alpha average % Inhibition at 0.93 μM; for IC50: 10 μM ATP, 10 μM PIP2, 20 min at 22° C., read-out: average IC50 in the PI3K alpha biochemical assay.
Excerpt: as §1
PI3Kα inhibitory activity of compounds of the present invention was quantified employing the HTRF-based PI3K inhibition assay as described below.
as §2
For the assay 50 nL of a 80-fold concentrated solution of the test compound in DMSO was pipetted into a black low volume 384-well microtiter plate (Greiner Bio-One, Frickenhausen, Germany), 3 μL of a solution of PI3Kα and phosphatidylinositol-4,5-bisphosphate (PIP2, 13.8 μM=> final conc. in 4 μl reaction volume=10 μM) in 1× reaction buffer (exact composition not disclosed by the vendor) were added and the mixture was incubated for 15 min at 22° C. to allow pre-binding of the test compounds to the enzyme before the start of the kinase reaction. The amount of PI3Kα was chosen to have the enzyme reaction in the linear range and depended on the activity of the individual lot, typical concentrations in assay were in the range of 90 ng/mL. Then the kinase reaction was started by the addition of 1 μL of a solution of adenosine triphosphate (ATP, 40 μM=> final conc. in the 4 μL assay volume is 10 μM) in reaction buffer and the resulting mixture was incubated for a reaction time of 20 min at 22° C.
The reaction was stopped by the addition of 1 μL of an stop solution (containing the biotinylated PIP3 used as a tracer), then 1 μL detection mix (containing a Europium-labeled anti-GST monoclonal antibody, a GST-tagged PH domain, and Streptavidin-Allophycocyanin) was added and resulting mixture was incubated 3 h at 22° C. to allow the formation of complexes between the detection reagents and either the PIP3 generated in the kinase reaction, or the biotinylated PIP3 added with the stop solution. Subsequently, the amount of energy transfer complex consisting of a Europium-labeled anti-GST monoclonal antibody, a GST-tagged PH domain, biotinylated PIP3 and Streptavidin-Allophycocyanin (APC) was evaluated by measurement of the resonance energy transfer from the Europium-labeled anti-GST monoclonal antibody to the Streptavidin-Allophycocyanin. Therefore, the fluorescence emissions at 620 nm and 665 nm after excitation at 350 nm were measured using a TR-FRET reader, e.g., a Pherastar (BMG Labtechnologies, Offenburg, Germany) or a Viewlux (Perkin-Elmer). The ratio of the emissions at 665 nm and at 622 nm was taken as the measure for the amount of biotinylated PIP3 bound to the GST-tagged PH domain, which is negatively correlated with the amount of PIP3 generated.

PI3Kα (complex of human p110α and human p85α), sequence (P42336 whole entry, the tested form may be a part): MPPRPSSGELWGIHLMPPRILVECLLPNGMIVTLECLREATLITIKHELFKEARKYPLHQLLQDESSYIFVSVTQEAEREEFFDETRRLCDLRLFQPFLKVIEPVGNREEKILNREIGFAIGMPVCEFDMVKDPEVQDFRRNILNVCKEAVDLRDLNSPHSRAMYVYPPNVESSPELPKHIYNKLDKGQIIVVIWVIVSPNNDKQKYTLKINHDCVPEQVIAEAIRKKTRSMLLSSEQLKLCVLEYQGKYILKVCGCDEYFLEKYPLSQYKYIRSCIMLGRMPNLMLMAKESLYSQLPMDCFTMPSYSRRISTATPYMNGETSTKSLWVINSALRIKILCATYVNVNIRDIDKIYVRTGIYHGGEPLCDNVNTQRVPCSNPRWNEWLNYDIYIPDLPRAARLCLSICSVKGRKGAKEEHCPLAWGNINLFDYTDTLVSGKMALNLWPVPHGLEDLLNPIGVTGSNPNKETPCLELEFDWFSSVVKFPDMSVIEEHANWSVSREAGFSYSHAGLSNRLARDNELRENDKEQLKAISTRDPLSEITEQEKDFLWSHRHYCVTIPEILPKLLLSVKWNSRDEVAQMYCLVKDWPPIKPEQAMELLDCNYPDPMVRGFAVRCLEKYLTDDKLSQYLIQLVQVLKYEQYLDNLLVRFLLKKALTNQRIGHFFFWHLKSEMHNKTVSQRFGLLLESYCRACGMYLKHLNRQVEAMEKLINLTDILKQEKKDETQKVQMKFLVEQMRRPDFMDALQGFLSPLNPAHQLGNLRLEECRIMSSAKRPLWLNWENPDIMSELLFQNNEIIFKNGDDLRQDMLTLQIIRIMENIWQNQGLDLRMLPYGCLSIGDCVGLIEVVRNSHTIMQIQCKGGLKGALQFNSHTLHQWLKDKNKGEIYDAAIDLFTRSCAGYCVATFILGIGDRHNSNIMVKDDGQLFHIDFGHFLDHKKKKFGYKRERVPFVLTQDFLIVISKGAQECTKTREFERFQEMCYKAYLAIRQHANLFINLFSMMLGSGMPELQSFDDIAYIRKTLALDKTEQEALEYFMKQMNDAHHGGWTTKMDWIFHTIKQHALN
PI3Kα (complex of human p110α and human p85α), sequence (P27986 whole entry partner, the tested form may be a part): as the sequence (P27986 whole entry partner, the tested form may be a part) above

In the case of `COc1c(OCC(O)CN2CCOCC2)ccc2c1N=C(NC(=O)c1cccnc1)N1CCN=C21` (stereo not drawn) [Comparative Example 1, N-{8-[2-hydroxy-3-(morpholin-4-yl)propoxy]-7-methoxy-2,3-dihydroimidazo[1,2-c]quinazolin-5-yl}pyridine-3-carboxamide, reference compound], the inhibition at 0.93 µM in experiment [1] came to 92.1%; in experiment [2], 97.4%.

In the case of `COc1c(OC[C@H](O)CN2CCOCC2)ccc2c1N=C(NC(=O)c1cccnc1)N1CCN=C21` [Example 2, N-(8-{[(2R)-2-hydroxy-3-(morpholin-4-yl)propyl]oxy}-7-methoxy-2,3-dihydroimidazo[1,2-c]quinazolin-5-yl)pyridine-3-carboxamide], the figures for the inhibition at 0.93 µM in experiment [1] and in experiment [2] were 94.4% and 97.6%, respectively.

For `COc1c(OC[C@@H](O)CN2CCOCC2)ccc2c1N=C(NC(=O)c1cccnc1)N1CCN=C21` [Example 3, N-(8-{[(2S)-2-hydroxy-3-(morpholin-4-yl)propyl]oxy}-7-methoxy-2,3-dihydroimidazo[1,2-c]quinazolin-5-yl)pyridine-3-carboxamide], the results for the inhibition at 0.93 µM in experiment [1] and in experiment [2] were 92.9% and 103%, respectively.

As to `COc1c(OC[C@H](O)CN2C[C@@H](C)O[C@@H](C)C2)ccc2c1N=C(NC(=O)c1cccnc1)N1CCN=C21` [Example 4, N-[8-({(2R)-3-[(2R,6S)-2,6-dimethylmorpholin-4-yl]-2-hydroxypropyl}oxy)-7-methoxy-2,3-dihydroimidazo[1,2-c]quinazolin-5-yl]pyridine-3-carboxamide], in experiment [1], the inhibition at 0.93 µM was found to be 96.4%, the IC50 is > 50 nM and the “PI3K beta average IC50/PI3K alpha average IC50” value came to 4.85. In experiment [2], the inhibition at 0.93 µM was found to be 99.8% and the IC50 fell in the range of 10 to 50 nM.

`COc1c(OC[C@H](O)CN2CC3CCC(C2)O3)ccc2c1N=C(NC(=O)c1cccnc1)N1CCN=C21` [Example 5, N-(8-{[(2R)-2-hydroxy-3-(8-oxa-3-azabicyclo[3.2.1]oct-3-yl)propyl]oxy}-7-methoxy-2,3-dihydroimidazo[1,2-c]quinazolin-5-yl)pyridine-3-carboxamide]: in experiment [1], the inhibition at 0.93 µM worked out at 104%, the IC50 was 10 to 50 nM and the “PI3K beta average IC50/PI3K alpha average IC50” value is recorded as 3.68. Also, in experiment [2], the inhibition at 0.93 µM was found to be 101% and the IC50 was < 10 nM.

On to `COc1c(OCC(O)CN2CCSCC2)ccc2c1N=C(NC(=O)c1cccnc1)N1CCN=C21` (stereo not drawn) [Example 6, N-{8-[2-hydroxy-3-(thiomorpholin-4-yl)propoxy]-7-methoxy-2,3-dihydroimidazo[1,2-c]quinazolin-5-yl}pyridine-3-carboxamide], for which, in experiment [1], the inhibition at 0.93 µM amounted to 84.1% and the IC50 is > 50 nM. Moreover, in experiment [2], the inhibition at 0.93 µM came out at 91.2% and the IC50 was < 10 nM.

Turning to `COc1c(OC[C@H](O)CN2CCC2)ccc2c1N=C(NC(=O)c1cccnc1)N1CCN=C21` [Example 7, N-(8-{[(2R)-3-(azetidin-1-yl)-2-hydroxypropyl]oxy}-7-methoxy-2,3-dihydroimidazo[1,2-c]quinazolin-5-yl)pyridine-3-carboxamide], in experiment [1], the inhibition at 0.93 µM came out at 97.3%, the IC50 was > 50 nM and the “PI3K beta average IC50/PI3K alpha average IC50” value was 2.22. Further, in experiment [2], the inhibition at 0.93 µM is 99.5% and the IC50 lay in the range of 10 to 50 nM.

As for `COc1c(OC[C@H](O)CN2CCCC2)ccc2c1N=C(NC(=O)c1cccnc1)N1CCN=C21` [Example 8, N-(8-{[(2R)-2-hydroxy-3-(pyrrolidin-1-yl)propyl]oxy}-7-methoxy-2,3-dihydroimidazo[1,2-c]quinazolin-5-yl)pyridine-3-carboxamide], in experiment [1], the inhibition at 0.93 µM turned out to be 101%, the IC50 was 10 to 50 nM and the “PI3K beta average IC50/PI3K alpha average IC50” value was 2.62. In experiment [2], the inhibition at 0.93 µM came out at 102% and the IC50 was < 10 nM.

For the compound `COc1c(OC[C@H](O)CN2CCCCC2)ccc2c1N=C(NC(=O)c1cccnc1)N1CCN=C21` [Example 9, N-(8-{[(2R)-2-Hydroxy-3-(piperidin-1-yl)propyl]oxy}-7-methoxy-2,3-dihydroimidazo[1,2-c]quinazolin-5-yl)pyridine-3-carboxamide], in experiment [1], the inhibition at 0.93 µM turned out to be 97.2%, the IC50 was in the range of 10 to 50 nM and the “PI3K beta average IC50/PI3K alpha average IC50” value stood at 2.02. In addition, in experiment [2], the inhibition at 0.93 µM was determined as 104% and the IC50 is < 10 nM.

Regarding `COc1c(OCC(O)CN(C)C)ccc2c1N=C(NC(=O)c1cccnc1)N1CCN=C21` (stereo not drawn) [Example 10, N-{8-[3-(dimethylamino)-2-hydroxypropoxy]-7-methoxy-2,3-dihydroimidazo[1,2-c]quinazolin-5-yl}pyridine-3-carboxamide], in experiment [1], the inhibition at 0.93 µM was 98.1%, the IC50 lay in the range of 10 to 50 nM and the “PI3K beta average IC50/PI3K alpha average IC50” value came out at 5.47. In addition, in experiment [2], the inhibition at 0.93 µM came out at 96.3% and the IC50 is < 10 nM.

With `COc1c(OC[C@H](O)CN(C)C)ccc2c1N=C(NC(=O)c1cccnc1)N1CCN=C21` [Example 11, N-(8-{[(2R)-3-(dimethylamino)-2-hydroxypropyl]oxy}-7-methoxy-2,3-dihydroimidazo[1,2-c]quinazolin-5-yl)pyridine-3-carboxamide], in experiment [1], the inhibition at 0.93 µM is 95.5%, the IC50 lay within 10 to 50 nM and the “PI3K beta average IC50/PI3K alpha average IC50” value is given as 1.60. Besides, in experiment [2], the inhibition at 0.93 µM was found to be 82% and the IC50 lay in the range of 10 to 50 nM.

For `COc1c(OC[C@H](O)CN(C(C)C)C(C)C)ccc2c1N=C(NC(=O)c1cccnc1)N1CCN=C21` [Example 12, N-(8-{[(2R)-3-(dipropan-2-ylamino)-2-hydroxypropyl]oxy}-7-methoxy-2,3-dihydroimidazo[1,2-c]quinazolin-5-yl)pyridine-3-carboxamide], in experiment [1], the inhibition at 0.93 µM is 115%, the IC50 was in the range of 10 to 50 nM and the “PI3K beta average IC50/PI3K alpha average IC50” value came to 4.74. Also, in experiment [2], the inhibition at 0.93 µM stood at 104% and the IC50 is < 10 nM.

`COc1c(OC[C@H](O)CN2CCOCC2)ccc2c1N=C(NC(=O)c1cccnc1C)N1CCN=C21` [Example 14, N-(8-{[(2R)-2-Hydroxy-3-(morpholin-4-yl)propyl]oxy}-7-methoxy-2,3-dihydroimidazo[1,2-c]quinazolin-5-yl)-2-methylpyridine-3-carboxamide]: in experiment [1], the inhibition at 0.93 µM was determined as 102%, the IC50 fell in the range of 10 to 50 nM and the “PI3K beta average IC50/PI3K alpha average IC50” value was 3.09. In experiment [2], the inhibition at 0.93 µM amounted to 104% and the IC50 is < 10 nM.

For the compound `COc1c(OC[C@H](O)CN2CCC2)ccc2c1N=C(NC(=O)c1cccnc1C)N1CCN=C21` [Example 16, N-(8-{[(2R)-3-(Azetidin-1-yl)-2-hydroxypropyl]oxy}-7-methoxy-2,3-dihydroimidazo[1,2-c]quinazolin-5-yl)-2-methylpyridine-3-carboxamide], in experiment [1], the inhibition at 0.93 µM was 87.7%, the IC50 was in the range of 10 to 50 nM and the “PI3K beta average IC50/PI3K alpha average IC50” value is listed as 3.94. Moreover, in experiment [2], the inhibition at 0.93 µM worked out at 109% and the IC50 lay in the range of 10 to 50 nM.
